For the experiment, the target named is C-C chemokine receptor type 2 (Homo sapiens, UniProt P41597). Description: Binding Assay: MCP-1 Receptor Binding Assay in THP-1 Cells Human monocytic cell line THP-1 cells were obtained from American Type Culture Collection (Manassas, Va., USA). The THP-1 cells were grown in RPMI-1640 (RPMI: Roswell Park Memorial Institute Medium-cell culture growth media) supplemented with 10% fetal bovine serum in a humidified 5% CO2 atmosphere at 37 C. The cell density was maintained between 0.5x10^6 cells/mL.THP-1 (cells were incubated with 0.5 nM 125I labeled MCP-1 (Perkin-Elmer Life Sciences, Inc. Boston, Mass.) in the presence of varying concentrations of either unlabeled MCP-1 (R & D Systems, Minneapolis, Minn.) or test compound for 2 hours at 30 C. in a 96 well plate. Cells were then harvested onto a filter plate, dried, and 20 uL of Microscint 20 was added to each well. Plates were counted in a TopCount NXT, Microplate Scintillation & Luminescence Counter (Perkin-Elmer Life Sciences, Inc. Boston, Mass.). It is filed as cell-based.

pIC50: −log10 of the molar value.

Chain of C-C chemokine receptor type 2 (P41597 whole entry): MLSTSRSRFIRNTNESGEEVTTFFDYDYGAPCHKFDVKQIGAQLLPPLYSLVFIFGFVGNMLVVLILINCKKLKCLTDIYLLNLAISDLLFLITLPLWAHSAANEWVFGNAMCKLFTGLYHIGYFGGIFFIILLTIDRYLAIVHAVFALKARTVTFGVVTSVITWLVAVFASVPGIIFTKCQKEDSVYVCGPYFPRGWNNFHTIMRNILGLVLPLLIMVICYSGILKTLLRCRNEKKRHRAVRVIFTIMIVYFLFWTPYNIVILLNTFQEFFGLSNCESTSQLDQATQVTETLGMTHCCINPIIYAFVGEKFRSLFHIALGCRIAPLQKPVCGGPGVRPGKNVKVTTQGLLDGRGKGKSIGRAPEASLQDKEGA

`CC1(C)Cc2cc(/C=C/C(=O)N3CCC(C(NC4CCC(c5c[nH]c6ccccc56)CC4)C(N)=O)CC3)ccc2O1` (stereo unspecified): the pIC50 was 5.96.

The pIC50 is −log10 of the IC50, conventionally taken in molar units.

The record behind these values is ChEMBL document CHEMBL3638678, “4-substituted-cyclohexylamino-4-piperidinyl-acetamide antagonists of CCR2” (2014).
